Measurements: patent publication US10202361B2, “Pyridazinones as herbicides” (E I DU PONT DE NEMOURS AND COMPANY, priority 2014, dated 2019)

Tests used:
Experiment in all cases: Test E pre-/postemergence greenhouse herbicide test
Type in all cases: in vivo
[1] = test system: lambsquarters (Chenopodium album); settings: Preemergence, scale 0 to 100
From the text: (§1) Seeds of plant species selected from corn (Zea mays), soybean (Glycine max), lambsquarters (Chenopodium album), poinsettia, wild (wild poinsettia, Euphorbia heterophylla), pigweed, palmer (palmer pigweed, Amaranthus palmeri), waterhemp (common waterhemp, Amaranthus rudis), surinam grass (Brachiaria decumbens), crabgrass, large (large crabgrass Digitaria sanguinalis), crabgrass, Brazil (Brazilian crabgrass, Digitaria horizontalis), panicum, fall (fall panicum, Panicum dichotomiflorum), foxtail, giant (giant foxtail, Setaria faberii), foxtail, green (green foxtail, Setaria viridis), goosegrass (Eleusine indica), johnsongrass (Sorghum halepense), ragweed (common ragweed, Ambrosia elatior), barnyardgrass (Echinochloa crus-galli), sandbur (southern sandbur, Cenchrus echinatus), arrowleaf sida (Sida rhombifolia), ryegrass, Italian (Italian ryegrass, Lolium multiflorum), dayflower, VA (Virginia dayflower, Commelina virginica), field bindweed (Convolvulus arvensis), cocklebur (common cocklebur, Xanthium strumarium), morningglory (Ipomoea coccinea), nightshade (eastern black nightshade, Solanum ptycanthum), kochia (Kochia scoparia), nutsedge, yellow (yellow nutsedge, Cyperus esculentus), smartweed (ladysthumb smartweed, Polygonum persicaria), velvetleaf (Abutilon theophrasti), and beggarticks (hairy beggarticks, Bidens pilosa), were planted into a silt loam soil and treated preemergence with test chemicals formulated in a non-phytotoxic solvent mixture which included a surfactant.
(§2) At the same time, plants from these crop and weed species and also waterhemp_RES1, (ALS & Triazine resistant common waterhemp, Amaranthus rudis), and waterhemp_RES2, (ALS & HPPD resistant common waterhemp, Amaranthus rudis) were planted in pots containing Redi-Earth® planting medium (Scotts Company, 14111 Scottslawn Road, Marysville, Ohio 43041) comprising spaghnum peat moss, vermiculite, wetting agent and starter nutrients were treated with postemergence applications of test chemicals formulated in the same manner. Plants ranged in height from 2 to 18 cm for postemergence treatments (1- to 4-leaf stage). Treated plants and controls were maintained in a greenhouse for 14 to 21 d, after which time all species were compared to controls and visually evaluated. Plant response ratings, summarized in Table E, are based on a scale of 0 to 100 where 0 is no effect and 100 is complete control. A dash (-) response means no test result.

[2] = test system: barnyardgrass (Echinochloa crus-galli); settings: scale 0 to 100
From the text: as §1, §2

[3] = test system: ragweed (common ragweed, Ambrosia elatior); settings: Preemergence, scale 0 to 100
From the text: as §1, §2

corn (Zea mays) = settings: scale 0 to 100
From the text: as §1, §2

[4] = test system: waterhemp (common waterhemp, Amaranthus rudis); settings: scale 0 to 100
From the text: as §1, §2

[5] = test system: field bindweed (Convolvulus arvensis); settings: scale 0 to 100
From the text: as §1, §2

[6] = test system: foxtail, green (green foxtail, Setaria viridis); settings: Preemergence, scale 0 to 100
From the text: as §1, §2

[7] = test system: cocklebur (common cocklebur, Xanthium strumarium); settings: Preemergence, scale 0 to 100
[8] = test system: crabgrass, large (large crabgrass Digitaria sanguinalis); settings: Preemergence, scale 0 to 100
[9] = test system: goosegrass (Eleusine indica); settings: Preemergence, scale 0 to 100
[10] = test system: surinam grass (Brachiaria decumbens); settings: Preemergence, scale 0 to 100

**Q.** Which “Plant response rating: Lambsquarters” value ([1]; 62 g ai/ha) does the source give for COc1cc(=O)n(-c2ccc(C(F)(F)F)cc2)nc1Cc1ccnc(C(F)(F)F)c1 [Compound 16, 5-methoxy-2-[4-(trifluoromethyl)phenyl]-6-[[2-(trifluoromethyl)-4-pyridinyl]methyl]-3(2H)-pyridazinone] here?
**A.** 98

**Q.** And the “Plant response rating: Lambsquarters” value ([1]; 125 g ai/ha)?
**A.** 98

**Q.** And the “Plant response rating: Lambsquarters” value ([1]; 250 g ai/ha)?
**A.** 100

**Q.** What about the “Plant response rating: Barnyardgrass” value ([2]; Postemergence, 62 g ai/ha) of the same compound?
**A.** 15

**Q.** What about the “Plant response rating: Barnyardgrass” value ([2]; Postemergence, 125 g ai/ha) of the same compound?
**A.** 30

**Q.** What about the “Plant response rating: Barnyardgrass” value ([2]; Postemergence, 250 g ai/ha) of the same compound?
**A.** 50

**Q.** What about the “Plant response rating: Barnyardgrass” value ([2]; Preemergence, 62 g ai/ha) of the same compound?
**A.** 35

**Q.** And the “Plant response rating: Barnyardgrass” value ([2]; Preemergence, 125 g ai/ha)?
**A.** 50

**Q.** And the “Plant response rating: Barnyardgrass” value ([2]; Preemergence, 250 g ai/ha)?
**A.** 70

**Q.** What about the “Plant response rating: Ragweed” value ([3]; 62 g ai/ha) of the same compound?
**A.** 0

**Q.** What about the “Plant response rating: Ragweed” value ([3]; 125 g ai/ha) of the same compound?
**A.** 0

**Q.** And the “Plant response rating: Ragweed” value ([3]; 250 g ai/ha)?
**A.** 95

**Q.** What about the “Plant response rating: Corn” value (corn (Zea mays); Postemergence, 62 g ai/ha) of the same compound?
**A.** 30

**Q.** What about the “Plant response rating: Corn” value (corn (Zea mays); Postemergence, 125 g ai/ha) of the same compound?
**A.** 40

**Q.** What about the “Plant response rating: Corn” value (corn (Zea mays); Postemergence, 250 g ai/ha) of the same compound?
**A.** 50

**Q.** What about the “Plant response rating: Corn” value (corn (Zea mays); Preemergence, 62 g ai/ha) of the same compound?
**A.** 40

**Q.** And the “Plant response rating: Corn” value (corn (Zea mays); Preemergence, 125 g ai/ha)?
**A.** 40

**Q.** And the “Plant response rating: Corn” value (corn (Zea mays); Preemergence, 250 g ai/ha)?
**A.** 65

**Q.** And the “Plant response rating: Waterhemp” value ([4]; Postemergence, 62 g ai/ha)?
**A.** 80

**Q.** And the “Plant response rating: Waterhemp” value ([4]; Postemergence, 125 g ai/ha)?
**A.** 80

**Q.** And the “Plant response rating: Waterhemp” value ([4]; Postemergence, 250 g ai/ha)?
**A.** 100

**Q.** And the “Plant response rating: Waterhemp” value ([4]; Preemergence, 62 g ai/ha)?
**A.** 100

**Q.** What about the “Plant response rating: Waterhemp” value ([4]; Preemergence, 125 g ai/ha) of the same compound?
**A.** 100

**Q.** What about the “Plant response rating: Waterhemp” value ([4]; Preemergence, 250 g ai/ha) of the same compound?
**A.** 100

**Q.** And the “Plant response rating: Field Bindweed” value ([5]; Postemergence, 62 g ai/ha)?
**A.** 50

**Q.** What about the “Plant response rating: Field Bindweed” value ([5]; Postemergence, 125 g ai/ha) of the same compound?
**A.** 65

**Q.** And the “Plant response rating: Field Bindweed” value ([5]; Postemergence, 250 g ai/ha)?
**A.** 75

**Q.** What about the “Plant response rating: Field Bindweed” value ([5]; Preemergence, 62 g ai/ha) of the same compound?
**A.** 5

**Q.** What about the “Plant response rating: Field Bindweed” value ([5]; Preemergence, 125 g ai/ha) of the same compound?
**A.** 30

**Q.** And the “Plant response rating: Field Bindweed” value ([5]; Preemergence, 250 g ai/ha)?
**A.** 100

**Q.** And the “Plant response rating: Foxtail, Green” value ([6]; 62 g ai/ha)?
**A.** 50

**Q.** And the “Plant response rating: Foxtail, Green” value ([6]; 125 g ai/ha)?
**A.** 95

**Q.** What about the “Plant response rating: Foxtail, Green” value ([6]; 250 g ai/ha) of the same compound?
**A.** 100

**Q.** And the “Plant response rating: Cocklebur” value ([7]; 125 g ai/ha)?
**A.** 0

**Q.** What about the “Plant response rating: Cocklebur” value ([7]; 250 g ai/ha) of the same compound?
**A.** 0

**Q.** What about the “Plant response rating: Crabgrass, Large” value ([8]; 62 g ai/ha) of the same compound?
**A.** 100

**Q.** What about the “Plant response rating: Crabgrass, Large” value ([8]; 125 g ai/ha) of the same compound?
**A.** 100

**Q.** And the “Plant response rating: Crabgrass, Large” value ([8]; 250 g ai/ha)?
**A.** 100

**Q.** And the “Plant response rating: Goosegrass” value ([9]; 62 g ai/ha)?
**A.** 5

**Q.** What about the “Plant response rating: Goosegrass” value ([9]; 125 g ai/ha) of the same compound?
**A.** 20

**Q.** What about the “Plant response rating: Goosegrass” value ([9]; 250 g ai/ha) of the same compound?
**A.** 50

**Q.** And the “Plant response rating: Surinam Grass” value ([10]; 62 g ai/ha)?
**A.** 25

**Q.** What about the “Plant response rating: Surinam Grass” value ([10]; 125 g ai/ha) of the same compound?
**A.** 40

**Q.** What about the “Plant response rating: Surinam Grass” value ([10]; 250 g ai/ha) of the same compound?
**A.** 98
